Reference: ChEMBL document CHEMBL5380782, “Design, Biological Evaluation, and Computer-Aided Analysis of Dihydrothiazepines as Selective Antichlamydial Agents” (J Med Chem, 2023)

What was measured:
[1] = Mutagenicity in Salmonella typhimurium TA98 assessed as number of revertants per plate at 50 ug pretreated for 90 mins measured after 66 hrs in presence of S9 fraction by AMES test (reference value: 24.33 +/- 9.50); assay type: toxicity, subcellular, Salmonella enterica subsp. enterica serovar Typhimurium; conditions: s9, 67.5 h, dose 50 µg
[2] = Mutagenicity in Salmonella typhimurium TA100 assessed as number of revertants per plate at 150 ug pretreated for 90 mins measured after 66 hrs by AMES test (reference value: 206 +/- 7.07); assay type: toxicity, Salmonella enterica subsp. enterica serovar Typhimurium; conditions: in vivo, 67.5 h, dose 150 µg
Nakaseomyces glabratus = experiment: Antimicrobial activity against Candida glabrata 2001 assessed as microbial growth inhibition by broth microdilution method; assay type: functional
[3] = Mutagenicity in Salmonella typhimurium TA100 assessed as number of revertants per plate at 150 ug pretreated for 90 mins measured after 66 hrs in presence of S9 by AMES test (reference value: 201 +/- 9.90); assay type: toxicity, Salmonella enterica subsp. enterica serovar Typhimurium; conditions: in vivo, 67.5 h, dose 150 µg
Pseudomonas aeruginosa = experiment: Antimicrobial activity against Pseudomonas aeruginosa PA01 assessed as microbial growth inhibition incubated for 24 hrs by TTC staining based assay; assay type: functional
[4] = Cytotoxicity against HEC-1-A cells assessed as cell survival at 256 ug/ml incubated for 20 hrs by XTT assay relative to control; assay type: toxicity, cell-based; conditions: human, at 256 µg/mL, read-out: Survival
[5] = Mutagenicity in Salmonella typhimurium TA100 assessed as number of revertants per plate at 5000 ug pretreated for 90 mins measured after 66 hrs in presence of S9 by AMES test (reference value: 201 +/- 9.90); assay type: toxicity, Salmonella enterica subsp. enterica serovar Typhimurium; conditions: in vivo, 67.5 h, dose 5000 µg
Escherichia coli = experiment: Antimicrobial activity against non-pathogenic Escherichia coli ATCC MG1655 assessed as microbial growth inhibition incubated for 24 hrs by TTC staining based assay; assay type: functional
[6] = system: Bacteroides thetaiotaomicron; experiment: Antimicrobial activity against Bacteroides thetaiotaomicron DSM 2079 assessed as microbial growth inhibition incubated for 48 hrs; assay type: functional
[7] = Stability of compound in human serum assessed as compound remaining at 2 mg/ml measured after 24 hrs by HPLC analysis; assay type: ADME, cell-free; conditions: read-out: Stability
[8] = Mutagenicity in Salmonella typhimurium TA100 assessed as number of revertants per plate at 1500 ug pretreated for 90 mins measured after 66 hrs in presence of S9 by AMES test (reference value: 201 +/- 9.90); assay type: toxicity, Salmonella enterica subsp. enterica serovar Typhimurium; conditions: in vivo, 67.5 h, dose 1500 µg
[9] = Mutagenicity in Salmonella typhimurium TA98 assessed as mutagenic index ratio at 150 ug pretreated for 90 mins measured after 66 hrs in presence of S9 fraction by AMES test; assay type: toxicity, subcellular, Salmonella enterica subsp. enterica serovar Typhimurium; conditions: s9, 67.5 h, dose 150 µg
Chlamydia trachomatis [10] = experiment: Antibacterial activity against Chlamydia trachomatis L2 infected in HEp-2 cells assessed as reduction in number of chlamydial inclusion at 3.12 ug/ml incubated for 24 hrs by fluorescence microscopy relative to control; assay type: functional; design: scale not given: the % may be the effect or the level left; conditions: dose 3.12 µg/ml
[11] = Cytotoxicity against HEp-2 cells assessed as cell viability at 256 ug/ml incubated for 20 hrs by XTT assay relative to control; assay type: toxicity, cell-based; conditions: human, at 256 µg/mL, read-out: Activity
[12] = Mutagenicity in Salmonella typhimurium TA100 assessed as number of revertants per plate at 50 ug pretreated for 90 mins measured after 66 hrs in presence of S9 by AMES test (reference value: 201 +/- 9.90); assay type: toxicity, Salmonella enterica subsp. enterica serovar Typhimurium; conditions: in vivo, 67.5 h, dose 50 µg
Chlamydia trachomatis [13] = experiment: Antibacterial activity against Chlamydia trachomatis L2 infected in HEp-2 cells assessed as reduction in number of chlamydial inclusion incubated for 24 hrs by fluorescence microscopy; assay type: functional, organism-based; conditions: dose 1.56-12.5 µg/ml
[14] = Mutagenicity in Salmonella typhimurium TA98 assessed as number of revertants per plate at 500 ug pretreated for 90 mins measured after 66 hrs by AMES test (reference value: 25.67 +/- 5.51); assay type: toxicity, Salmonella enterica subsp. enterica serovar Typhimurium; conditions: in vivo, 67.5 h, dose 500 µg
[15] = Mutagenicity in Salmonella typhimurium TA98 assessed as mutagenic index ratio at 1500 ug pretreated for 90 mins measured after 66 hrs in presence of S9 fraction by AMES test; assay type: toxicity, subcellular, Salmonella enterica subsp. enterica serovar Typhimurium; conditions: s9, 67.5 h, dose 1500 µg
[16] = Mutagenicity in Salmonella typhimurium TA98 assessed as mutagenic index ratio at 50 ug pretreated for 90 mins measured after 66 hrs by AMES test; assay type: toxicity, Salmonella enterica subsp. enterica serovar Typhimurium; conditions: in vivo, 67.5 h, dose 50 µg
[17] = Mutagenicity in Salmonella typhimurium TA98 assessed as mutagenic index ratio at 500 ug pretreated for 90 mins measured after 66 hrs by AMES test; assay type: toxicity, Salmonella enterica subsp. enterica serovar Typhimurium; conditions: in vivo, 67.5 h, dose 500 µg
[18] = Mutagenicity in Salmonella typhimurium TA100 assessed as mutagenic index ratio at 150 ug pretreated for 90 mins measured after 66 hrs in presence of S9 by AMES test; assay type: toxicity, Salmonella enterica subsp. enterica serovar Typhimurium; conditions: in vivo, 67.5 h, dose 150 µg
[19] = Mutagenicity in Salmonella typhimurium TA100 assessed as mutagenic index ratio at 50 ug pretreated for 90 mins measured after 66 hrs in presence of S9 by AMES test; assay type: toxicity, Salmonella enterica subsp. enterica serovar Typhimurium; conditions: in vivo, 67.5 h, dose 50 µg
Chlamydia trachomatis [20] = experiment: Inhibition of recombinant Chlamydia trachomatis ClpX ATPase activity assessed as reduction in ATP consumption at 25 ug/ml incubated for 60 mins by Kinase Glo assay relative to control; conditions: dose 25.0 µg/ml
[21] = Mutagenicity in Salmonella typhimurium TA98 assessed as mutagenic index ratio at 1500 ug pretreated for 90 mins measured after 66 hrs by AMES test; assay type: toxicity, Salmonella enterica subsp. enterica serovar Typhimurium; conditions: in vivo, 67.5 h, dose 1500 µg
[22] = Mutagenicity in Salmonella typhimurium TA98 assessed as number of revertants per plate at 50 ug pretreated for 90 mins measured after 66 hrs by AMES test (reference value: 25.67 +/- 5.51); assay type: toxicity, Salmonella enterica subsp. enterica serovar Typhimurium; conditions: in vivo, 67.5 h, dose 50 µg
[23] = Stability of compound in simulated gastric fluid assessed as compound remaining at 2 mg/ml measured after 180 mins by HPLC analysis; assay type: ADME; conditions: read-out: Stability
[24] = Cytotoxicity against HEK293 cells assessed as cell survival at 256 ug/ml incubated for 20 hrs by XTT assay relative to control; assay type: toxicity, cell-based; conditions: human, at 256 µg/mL, read-out: Survival
Candida tropicalis = experiment: Antimicrobial activity against Candida tropicalis 750 assessed as microbial growth inhibition by broth microdilution method; assay type: functional
[25] = Mutagenicity in Salmonella typhimurium TA98 assessed as number of revertants per plate at 5000 ug pretreated for 90 mins measured after 66 hrs in presence of S9 fraction by AMES test (reference value: 24.33 +/- 9.50); assay type: toxicity, subcellular, Salmonella enterica subsp. enterica serovar Typhimurium; conditions: s9, 67.5 h, dose 5000 µg
[26] = Mutagenicity in Salmonella typhimurium TA98 assessed as number of revertants per plate at 5000 ug pretreated for 90 mins measured after 66 hrs by AMES test (reference value: 25.67 +/- 5.51); assay type: toxicity, Salmonella enterica subsp. enterica serovar Typhimurium; conditions: in vivo, 67.5 h, dose 5000 µg
[27] = Mutagenicity in Salmonella typhimurium TA100 assessed as number of revertants per plate at 50 ug pretreated for 90 mins measured after 66 hrs by AMES test (reference value: 206 +/- 7.07); assay type: toxicity, Salmonella enterica subsp. enterica serovar Typhimurium; conditions: in vivo, 67.5 h, dose 50 µg
Candida albicans = experiment: Antimicrobial activity against Candida albicans 90028 assessed as microbial growth inhibition by broth microdilution method; assay type: functional
[28] = Mutagenicity in Salmonella typhimurium TA100 assessed as mutagenic index ratio at 50 ug pretreated for 90 mins measured after 66 hrs by AMES test; assay type: toxicity, Salmonella enterica subsp. enterica serovar Typhimurium; conditions: in vivo, 67.5 h, dose 50 µg

## N#Cc1ccccc1C1Sc2ccccc2NC2=C1C(=O)c1ccccc12 (stereo not drawn)
[1]
  Activity: 32
[2]
  Activity: 187.5
Nakaseomyces glabratus
  MIC: > 1000 µg/mL
[3]
  Activity: 187
Pseudomonas aeruginosa
  MIC: > 125 µg/mL
[4]
  viability at 20 h, 256 ug/ml: ≥ 75%
[5]
  Activity: 227
Escherichia coli
  MIC: > 125 µg/mL
[6]
  MIC: > 125 µg/mL
[7]
  remaining at 24 h, 2 mg/ml: 80%
[8]
  Activity: 198.5
[9]
  Ratio: 1.43
Chlamydia trachomatis [10]
  Activity: <60%
[11]
  viability at 20 h, 256 ug/ml: 50%
[12]
  Activity: 185
Chlamydia trachomatis [13]
  Activity: Dose-Dependent Effect
[14]
  Activity: 38
[15]
  Ratio: 1.25
[16]
  Ratio: 1.01
[17]
  Ratio: 1.48
[18]
  Ratio: 0.93
[19]
  Ratio: 0.92
Chlamydia trachomatis [20]
  inhibition: 20%
[21]
  Ratio: 1.51
[22]
  Activity: 26
[23]
  remaining at 3 h, 2 mg/ml: 90%
[24]
  viability at 20 h, 256 ug/ml: ≥ 75%
Candida tropicalis
  MIC: > 1000 µg/mL
[25]
  Activity: 43.5
[26]
  Activity: 37.5
[27]
  Activity: 190.5
Candida albicans
  MIC: > 1000 µg/mL
[28]
  Ratio: 0.92
